Values after ≈ are worked out from the molar mass of the structure shown.
Legend:
Assay type in all cases: functional
[1] = tested on: Pseudomonas aeruginosa; experiment: Antimicrobial activity against Pseudomonas aeruginosa MTCC 1688 after 24 and 48 hr by serial broth dilution method
[2] = tested on: Candida albicans; experiment: Antimicrobial activity against Candida albicans MTCC 227
[3] = tested on: Streptococcus pyogenes; experiment: Antimicrobial activity against Streptococcus pyogenes MTCC 442 after 24 and 48 hr by serial broth dilution method
[4] = tested on: Escherichia coli; experiment: Antimicrobial activity against Escherichia coli MTCC 443 after 24 and 48 hr by serial broth dilution method
[5] = tested on: Staphylococcus aureus; experiment: Antimicrobial activity against Staphylococcus aureus MTCC 96 after 24 and 48 hr by serial broth dilution method
[6] = tested on: Aspergillus niger; experiment: Antimicrobial activity against Aspergillus niger MTCC 282
[7] = tested on: Aspergillus clavatus; experiment: Antimicrobial activity against Aspergillus clavatus MTCC 1323

| MIC99 [1] | MIC99 [2] | MIC99 [3] | MIC99 [4] | MIC99 [5] | MIC99 [6] | MIC99 [7] | Compound |
| --- | --- | --- | --- | --- | --- | --- | --- |
| 100 µg/mL (≈ 151 µM) | 1000 µg/mL (≈ 1510 µM) | 50 µg/mL (≈ 75.7 µM) | 50 µg/mL (≈ 75.7 µM) | 50 µg/mL (≈ 75.7 µM) | 1000 µg/mL (≈ 1510 µM) | 100 µg/mL (≈ 151 µM) | O=c1c2ccccc2nc(-c2ccccc2Cl)n1CCc1ccc2nc(-c3ccccc3Cl)n(-c3cccc([N+](=O)[O-])c3)c(=O)c2c1 |
| 200 µg/mL (≈ 303 µM) | 100 µg/mL (≈ 151 µM) | 12.5 µg/mL (≈ 18.9 µM) | 100 µg/mL (≈ 151 µM) | 200 µg/mL (≈ 303 µM) | 100 µg/mL (≈ 151 µM) | 1000 µg/mL (≈ 1510 µM) | O=c1c2ccccc2nc(-c2ccccc2Cl)n1CCc1ccc2nc(-c3ccccc3Cl)n(-c3ccccc3[N+](=O)[O-])c(=O)c2c1 |
| 500 µg/mL (≈ 741 µM) | 500 µg/mL (≈ 741 µM) | 25 µg/mL (≈ 37.1 µM) | 200 µg/mL (≈ 296 µM) | 100 µg/mL (≈ 148 µM) | 1000 µg/mL (≈ 1480 µM) | 100 µg/mL (≈ 148 µM) | Cc1ccc(-n2c(-c3ccccc3Cl)nc3ccc(CCn4c(-c5ccccc5Cl)nc5ccccc5c4=O)cc3c2=O)c([N+](=O)[O-])c1 |
| 100 µg/mL (≈ 286 µM) |  | 100 µg/mL (≈ 286 µM) | 100 µg/mL (≈ 286 µM) | 250 µg/mL (≈ 715 µM) |  |  | CC1(C)S[C@@H]2[C@H](NC(=O)[C@H](N)c3ccccc3)C(=O)N2[C@H]1C(=O)O [AMPICILLIN] |
| 100 µg/mL (≈ 155 µM) | 100 µg/mL (≈ 155 µM) | 50 µg/mL (≈ 77.7 µM) | 50 µg/mL (≈ 77.7 µM) | 50 µg/mL (≈ 77.7 µM) | 500 µg/mL (≈ 777 µM) | 500 µg/mL (≈ 777 µM) | Cc1ccc(-n2c(-c3ccccc3Cl)nc3ccc(CCn4c(-c5ccccc5Cl)nc5ccccc5c4=O)cc3c2=O)c(C)c1 |
| 200 µg/mL (≈ 288 µM) | 1000 µg/mL (≈ 1440 µM) | 500 µg/mL (≈ 720 µM) | 200 µg/mL (≈ 288 µM) | 500 µg/mL (≈ 720 µM) | 500 µg/mL (≈ 720 µM) | 1000 µg/mL (≈ 1440 µM) | O=c1c2ccccc2nc(-c2ccccc2Cl)n1CCc1ccc2nc(-c3ccccc3Cl)n(-c3ccc(Br)cc3)c(=O)c2c1 |
| 500 µg/mL (≈ 724 µM) | 100 µg/mL (≈ 145 µM) | 100 µg/mL (≈ 145 µM) | 100 µg/mL (≈ 145 µM) | 100 µg/mL (≈ 145 µM) | 500 µg/mL (≈ 724 µM) | 500 µg/mL (≈ 724 µM) | COc1ccc(-n2c(-c3ccccc3Cl)nc3ccc(CCn4c(-c5ccccc5Cl)nc5ccccc5c4=O)cc3c2=O)c([N+](=O)[O-])c1 |
| 500 µg/mL (≈ 757 µM) | 500 µg/mL (≈ 757 µM) | 100 µg/mL (≈ 151 µM) | 100 µg/mL (≈ 151 µM) | 200 µg/mL (≈ 303 µM) | 500 µg/mL (≈ 757 µM) | 500 µg/mL (≈ 757 µM) | O=c1c2ccccc2nc(-c2ccccc2Cl)n1CCc1ccc2nc(-c3ccccc3Cl)n(-c3ccc([N+](=O)[O-])cc3)c(=O)c2c1 |

Further lines, the molecule ahead of its results:

| Compound | MIC99 [1] | MIC99 [2] | MIC99 [3] | MIC99 [4] | MIC99 [5] | MIC99 [6] | MIC99 [7] |
| --- | --- | --- | --- | --- | --- | --- | --- |
| O=c1c2ccccc2nc(-c2ccccc2Cl)n1CCc1ccc2nc(-c3ccccc3Cl)n(-c3ccc(Cl)c(Cl)c3)c(=O)c2c1 | 100 µg/mL (≈ 146 µM) | 100 µg/mL (≈ 146 µM) | 50 µg/mL (≈ 73.1 µM) | 200 µg/mL (≈ 292 µM) | 50 µg/mL (≈ 73.1 µM) | 500 µg/mL (≈ 731 µM) | 100 µg/mL (≈ 146 µM) |
| Cc1ccc(C)c(-n2c(-c3ccccc3Cl)nc3ccc(CCn4c(-c5ccccc5Cl)nc5ccccc5c4=O)cc3c2=O)c1 | 200 µg/mL (≈ 311 µM) | 200 µg/mL (≈ 311 µM) | 25 µg/mL (≈ 38.8 µM) | 100 µg/mL (≈ 155 µM) | 100 µg/mL (≈ 155 µM) | 500 µg/mL (≈ 777 µM) | 500 µg/mL (≈ 777 µM) |
| O=c1c2ccccc2nc(-c2ccccc2Cl)n1CCc1ccc2nc(-c3ccccc3Cl)n(-c3c(Cl)cc([N+](=O)[O-])cc3Cl)c(=O)c2c1 | 500 µg/mL (≈ 685 µM) | 500 µg/mL (≈ 685 µM) | 50 µg/mL (≈ 68.5 µM) | 500 µg/mL (≈ 685 µM) | 100 µg/mL (≈ 137 µM) | 100 µg/mL (≈ 137 µM) | 100 µg/mL (≈ 137 µM) |
| Cc1cccc(-n2c(-c3ccccc3Cl)nc3ccc(CCn4c(-c5ccccc5Cl)nc5ccccc5c4=O)cc3c2=O)c1C | 100 µg/mL (≈ 155 µM) | 500 µg/mL (≈ 777 µM) | 100 µg/mL (≈ 155 µM) | 50 µg/mL (≈ 77.7 µM) | 500 µg/mL (≈ 777 µM) | 500 µg/mL (≈ 777 µM) | 500 µg/mL (≈ 777 µM) |
| O=c1c2ccccc2nc(-c2ccccc2Cl)n1CCc1ccc2nc(-c3ccccc3Cl)n(-c3ccccc3Cl)c(=O)c2c1 | 500 µg/mL (≈ 769 µM) | 500 µg/mL (≈ 769 µM) | 50 µg/mL (≈ 76.9 µM) | 500 µg/mL (≈ 769 µM) | 200 µg/mL (≈ 308 µM) | 100 µg/mL (≈ 154 µM) | 100 µg/mL (≈ 154 µM) |
| COC1=CC(=O)C[C@@H](C)[C@]12Oc1c(Cl)c(OC)cc(OC)c1C2=O [GRISEOFULVIN] |  | 500 µg/mL (≈ 1420 µM) |  |  |  | 100 µg/mL (≈ 283 µM) | 100 µg/mL (≈ 283 µM) |
